From ChEMBL document CHEMBL1201862, “PubChem BioAssay data set” (2004)
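Interpolation was linear, between the two tested concentrations surrounding the appropriate level; five concentrations were tested over 48 hours in 96-well plates. GI50 marks 50% less growth.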 The source made the active and inactive calls. Cut-off read from the data, not from the text of the source: active = GI50 up to about 1.1 µM and inactive = higher.

Experiments:
Assay in all cases: DTP human tumour cell line panel, 48 h
SNB-19 = test system: SNB-19
SF-268 = test system: SF-268
SF-539 = test system: SF-539
OVCAR-5 = test system: OVCAR-5
XF498 = test system: XF498
HOP-92 = test system: HOP-92
TK-10 = test system: TK-10
SK-MEL-2 = test system: SK-MEL-2
K562 = test system: K562
NCI-H460 = test system: NCI-H460
A549 = test system: A549
HL-60 = test system: HL-60
UACC-62 = test system: UACC-62
NCI-H23 = test system: NCI-H23
RXF 631 = test system: RXF 631
COLO 205 = test system: COLO 205
DLD-1 = test system: DLD-1
SNB-75 = test system: SNB-75
HCT-116 = test system: HCT-116
DMS-273 = test system: DMS-273
Malme-3M = test system: Malme-3M
OVCAR-3 = test system: OVCAR-3
SNB-78 = test system: SNB-78
SW-620 = test system: SW-620
NCI-H522 = test system: NCI-H522
LXFL 529 = test system: LXFL 529
786-0 = test system: 786-0
OVCAR-8 = test system: OVCAR-8
UACC-257 = test system: UACC-257
IGROV-1 = test system: IGROV-1
OVCAR-4 = test system: OVCAR-4
U-251 = test system: U-251
SK-OV-3 = test system: SK-OV-3
HOP-62 = test system: HOP-62
HCC 2998 = test system: HCC 2998
KM12 = test system: KM12
SF-295 = test system: SF-295
M14 = test system: M14
HCT-15 = test system: HCT-15
KM-20L2 = test system: KM-20L2
SK-MEL-28 = test system: SK-MEL-28
ACHN = test system: ACHN
RPMI-8226 = test system: RPMI-8226
NCI-H226 = test system: NCI-H226
LOX IMVI = test system: LOX IMVI
UO-31 = test system: UO-31
M19-MEL = test system: M19-MEL
HT-29 = test system: HT-29
SN12C = test system: SN12C
MOLT-4 = test system: MOLT-4
CAKI-1 = test system: CAKI-1
SR = test system: SR
HOP-18 = test system: HOP-18
RXF 393 = test system: RXF 393
MDA-N = test system: MDA-N
Hs-578T = test system: Hs-578T
DU-145 = test system: DU-145
PC-3 = test system: PC-3
NCI/ADR-RES = test system: NCI/ADR-RES
EKVX = test system: EKVX
MCF7 = test system: MCF7
DMS-114 = test system: DMS-114
BT-549 = test system: BT-549
MDA-MB-231 = test system: MDA-MB-231
CCRF-CEM = test system: CCRF-CEM
SK-MEL-5 = test system: SK-MEL-5
MDA-MB-435 = test system: MDA-MB-435
A498 = test system: A498

SMILES: CCCCCCCCCCCCCCCCCc1nnc(N)o1
- GI50 (SNB-19): > 100 µM (inactive)
- GI50 (SF-268): > 100 µM (inactive)
- GI50 (SF-539): > 100 µM (inactive)
- GI50 (OVCAR-5): > 100 µM (inactive)
- GI50 (XF498): > 100 µM (inactive)
- GI50 (HOP-92): > 100 µM (inactive)
- GI50 (TK-10): > 100 µM (inactive)
- GI50 (SK-MEL-2): > 100 µM (inactive)
- GI50 (K562): > 100 µM (inactive)
- GI50 (NCI-H460): > 100 µM (inactive)
- GI50 (A549): > 100 µM (inactive)
- GI50 (HL-60): > 100 µM (inactive)
- GI50 (UACC-62): > 100 µM (inactive)
- GI50 (NCI-H23): 47.4 µM (inactive)
- GI50 (RXF 631): > 100 µM (inactive)
- GI50 (COLO 205): > 100 µM (inactive)
- GI50 (DLD-1): > 100 µM (inactive)
- GI50 (SNB-75): > 100 µM (inactive)
- GI50 (HCT-116): > 100 µM (inactive)
- GI50 (DMS-273): > 100 µM (inactive)
- GI50 (Malme-3M): > 100 µM (inactive)
- GI50 (OVCAR-3): > 100 µM (inactive)
- GI50 (SNB-78): > 100 µM (inactive)
- GI50 (SW-620): > 100 µM (inactive)
- GI50 (NCI-H522): > 100 µM (inactive)
- GI50 (LXFL 529): > 100 µM (inactive)
- GI50 (786-0): > 100 µM (inactive)
- GI50 (OVCAR-8): > 100 µM (inactive)
- GI50 (UACC-257): > 100 µM (inactive)
- GI50 (IGROV-1): > 100 µM (inactive)
- GI50 (OVCAR-4): > 100 µM (inactive)
- GI50 (U-251): > 100 µM (inactive)
- GI50 (SK-OV-3): > 100 µM (inactive)
- GI50 (HOP-62): > 100 µM (inactive)
- GI50 (HCC 2998): > 100 µM (inactive)
- GI50 (KM12): > 100 µM (inactive)
- GI50 (SF-295): > 100 µM (inactive)
- GI50 (M14): > 100 µM (inactive)
- GI50 (HCT-15): > 100 µM
- GI50 (KM-20L2): > 100 µM (inactive)
- GI50 (SK-MEL-28): > 100 µM (inactive)
- GI50 (ACHN): > 100 µM (inactive)
- GI50 (RPMI-8226): > 100 µM (inactive)
- GI50 (NCI-H226): > 100 µM (inactive)
- GI50 (LOX IMVI): > 100 µM (inactive)
- GI50 (UO-31): > 100 µM (inactive)
- GI50 (M19-MEL): > 100 µM (inactive)
- GI50 (HT-29): > 100 µM (inactive)
- GI50 (SN12C): > 100 µM (inactive)
- GI50 (MOLT-4): > 100 µM (inactive)
- GI50 (CAKI-1): > 100 µM (inactive)
- GI50 (SR): > 100 µM (inactive)

SMILES: COc1ccc(/C=C\c2cc(OC)c(OC)c(OC)c2)cc1OCC(=O)O
- GI50 (HOP-18): > 100 µM (inactive)
- GI50 (RXF 393): 6.15 µM (inactive)
- GI50 (SNB-19): 4.18 µM (inactive)
- GI50 (MDA-N): 2.15 µM (inactive)
- GI50 (Hs-578T): 2.93 µM (inactive)
- GI50 (DU-145): 6.46 µM (inactive)
- GI50 (SF-268): 10.9 µM (inactive)
- GI50 (PC-3): 5.5 µM (inactive)
- GI50 (SF-539): 3.64 µM (inactive)
- GI50 (OVCAR-5): > 100 µM (inactive)
- GI50 (HOP-92): 9.89 µM (inactive)
- GI50 (TK-10): > 97.3 µM (inactive)
- GI50 (SK-MEL-2): 6.68 µM (inactive)
- GI50 (K562): 3.68 µM (inactive)
- GI50 (NCI-H460): 4.43 µM (inactive)
- GI50 (A549): 24.8 µM (inactive)
- GI50 (HL-60): 2.84 µM (inactive)
- GI50 (UACC-62): 4.99 µM (inactive)
- GI50 (NCI-H23): 3.9 µM (inactive)
- GI50 (RXF 631): > 100 µM (inactive)
- GI50 (COLO 205): > 100 µM (inactive)
- GI50 (NCI/ADR-RES): 2.21 µM (inactive)
- GI50 (DLD-1): 7.45 µM (inactive)
- GI50 (SNB-75): 5.15 µM (inactive)
- GI50 (HCT-116): 3.46 µM (inactive)
- GI50 (EKVX): > 96.8 µM (inactive)
- GI50 (DMS-273): 6.22 µM (inactive)
- GI50 (MCF7): 36.6 µM (inactive)
- GI50 (Malme-3M): 4.78 µM (inactive)
- GI50 (OVCAR-3): 2.69 µM (inactive)
- GI50 (SNB-78): 4.17 µM (inactive)
- GI50 (SW-620): 3.78 µM (inactive)
- GI50 (NCI-H522): 3.36 µM (inactive)
- GI50 (LXFL 529): 6.55 µM (inactive)
- GI50 (786-0): 37.6 µM (inactive)
- GI50 (DMS-114): 4.16 µM (inactive)
- GI50 (BT-549): 13.5 µM (inactive)
- GI50 (OVCAR-8): 5.64 µM (inactive)
- GI50 (UACC-257): 5.61 µM (inactive)
- GI50 (IGROV-1): 46.8 µM (inactive)
- GI50 (OVCAR-4): 20.7 µM (inactive)
- GI50 (U-251): 5.96 µM (inactive)
- GI50 (SK-OV-3): 29 µM (inactive)
- GI50 (HOP-62): 8.36 µM (inactive)
- GI50 (HCC 2998): 88.9 µM (inactive)
- GI50 (KM12): 5.86 µM (inactive)
- GI50 (SF-295): 12.7 µM (inactive)
- GI50 (MDA-MB-231): 18 µM (inactive)
- GI50 (M14): 3.79 µM (inactive)
- GI50 (HCT-15): 9.62 µM
- GI50 (KM-20L2): > 100 µM (inactive)
- GI50 (CCRF-CEM): 4.68 µM (inactive)
- GI50 (SK-MEL-28): 6.61 µM (inactive)
- GI50 (SK-MEL-5): 4.45 µM (inactive)
- GI50 (ACHN): 10.2 µM (inactive)
- GI50 (RPMI-8226): 4.84 µM (inactive)
- GI50 (NCI-H226): 15.1 µM (inactive)
- GI50 (LOX IMVI): 12.2 µM (inactive)
- GI50 (UO-31): 7.13 µM (inactive)
- GI50 (MDA-MB-435): 1.72 µM (inactive)
- GI50 (M19-MEL): 4.55 µM (inactive)
- GI50 (HT-29): > 100 µM (inactive)
- GI50 (SN12C): 9.18 µM (inactive)
- GI50 (MOLT-4): 6.41 µM (inactive)
- GI50 (A498): 31.1 µM (inactive)
- GI50 (CAKI-1): 48.2 µM (inactive)
- GI50 (SR): 3.89 µM (inactive)
